Experimental data: ChEMBL document CHEMBL1800070, “Inhibition of a prolyl hydroxylase domain (PHD) by substrate analog peptides” (Bioorg Med Chem Lett, 2011)
Calls of active or inactive are those of the source. The calls are words filed in the database; no cut-off is given here.

Columns and labels:
[1] = molecular target: T1, Egl nine homolog 1 (Homo sapiens, UniProt Q9GZT9); assay: Inhibition of GST-tagged PHD2 assessed as inhibition of hydroxylation of biotinylated HIF1alpha CODD peptide at 100 uM after 20 mins by MALDI-TOF technique in presence of 2-oxoglutarate
Target sequence in this assay (Q9GZT9 2-426 limits assumed): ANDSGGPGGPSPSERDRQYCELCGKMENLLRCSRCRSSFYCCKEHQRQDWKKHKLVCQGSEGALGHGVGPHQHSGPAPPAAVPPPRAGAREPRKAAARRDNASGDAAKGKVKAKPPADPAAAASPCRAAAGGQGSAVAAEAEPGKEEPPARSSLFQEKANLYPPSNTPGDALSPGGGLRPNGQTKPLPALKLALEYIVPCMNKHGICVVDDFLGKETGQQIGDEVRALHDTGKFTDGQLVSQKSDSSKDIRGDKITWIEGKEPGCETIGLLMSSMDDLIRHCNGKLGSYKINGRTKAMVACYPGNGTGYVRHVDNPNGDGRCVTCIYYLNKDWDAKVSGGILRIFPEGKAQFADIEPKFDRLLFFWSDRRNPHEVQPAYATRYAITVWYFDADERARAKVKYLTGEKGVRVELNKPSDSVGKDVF

[2] = molecular target: T1, Egl nine homolog 1; assay: Inhibition of GST-tagged PHD2 assessed as inhibition of hydroxylation of fluorescein-labeled HIF1alpha CODD peptide after 1 hr by fluorescent polarization assay in presence of 2-oxoglutarate
Target sequence in this assay (Q9GZT9 whole entry): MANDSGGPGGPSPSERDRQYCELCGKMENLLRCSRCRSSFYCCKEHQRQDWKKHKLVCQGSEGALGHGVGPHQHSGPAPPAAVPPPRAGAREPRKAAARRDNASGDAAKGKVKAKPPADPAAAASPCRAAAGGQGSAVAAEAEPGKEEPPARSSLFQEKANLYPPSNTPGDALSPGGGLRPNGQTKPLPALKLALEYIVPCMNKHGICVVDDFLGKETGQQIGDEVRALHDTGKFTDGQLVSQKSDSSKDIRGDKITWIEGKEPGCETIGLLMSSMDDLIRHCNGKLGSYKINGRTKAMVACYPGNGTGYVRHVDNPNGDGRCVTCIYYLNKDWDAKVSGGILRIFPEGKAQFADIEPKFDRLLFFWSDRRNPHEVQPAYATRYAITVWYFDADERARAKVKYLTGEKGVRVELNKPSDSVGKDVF

[3] = molecular target: Hypoxia-inducible factor 1-alpha inhibitor (Homo sapiens) (UniProt Q9NWT6); assay: Inhibition of FIH assessed as inhibition of hydroxylation of C-TAD peptide at 100 uM after 2 hrs by fluorescent polarization assay in presence of 2-oxoglutarate
Hypoxia-inducible factor 1-alpha inhibitor (Homo sapiens), sequence (Q9NWT6 whole entry): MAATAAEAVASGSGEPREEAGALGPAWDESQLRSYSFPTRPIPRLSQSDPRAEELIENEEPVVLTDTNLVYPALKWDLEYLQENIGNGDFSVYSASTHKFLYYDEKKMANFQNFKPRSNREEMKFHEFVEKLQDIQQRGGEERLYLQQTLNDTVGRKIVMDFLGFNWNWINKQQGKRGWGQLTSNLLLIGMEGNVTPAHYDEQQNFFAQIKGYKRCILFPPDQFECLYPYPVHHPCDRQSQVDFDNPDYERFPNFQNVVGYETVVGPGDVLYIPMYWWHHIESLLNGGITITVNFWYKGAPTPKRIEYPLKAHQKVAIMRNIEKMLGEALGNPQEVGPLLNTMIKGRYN

[4] = molecular target: T1, Egl nine homolog 1; assay: Inhibition of GST-tagged PHD2 assessed as inhibition of hydroxylation of fluorescein-labeled HIF1alpha CODD peptide at 100 uM after 2 hrs by fluorescent polarization assay in presence of 2-oxoglutarate
Target sequence in this assay (Q9GZT9 2-426 limits assumed): as the sequence (Q9GZT9 2-426 limits assumed) above

[5] = molecular target: T1, Egl nine homolog 1; assay: Competitive inhibition of GST-tagged PHD2 active site assessed as inhibition of hydroxylation of fluorescein-labeled HIF1alpha CODD peptide at 100 uM after 2 hrs by fluorescent polarization assay in presence of 2-oxoglutarate
Target sequence in this assay (Q9GZT9 2-426 limits assumed): as above

[6] = molecular target: T1, Egl nine homolog 1; assay: Inhibition of PHD2 in human HeLa cells assessed as stabilization of HIF1alpha at 1 mM incubated for 6 hrs under normoxic conditions by Western blot analysis relative to control; type: cell-based
Target sequence in this assay (Q9GZT9 2-426 limits assumed): as above

[7] = molecular target: T1, Egl nine homolog 1; assay: Competitive inhibition of GST-tagged PHD2 active site assessed as inhibition of hydroxylation of fluorescein-labeled HIF1alpha CODD peptide at 200 uM after 2 hrs by fluorescent polarization assay in presence of 2-oxoglutarate
Target sequence in this assay (Q9GZT9 2-426 limits assumed): as above

[8] = molecular target: T1, Egl nine homolog 1; assay: Inhibition of PHD2 in human HeLa cells assessed as stabilization of HIF1alpha at 100 uM incubated for 6 hrs under normoxic conditions by Western blot analysis relative to control; type: cell-based
Target sequence in this assay (Q9GZT9 2-426 limits assumed): as above

| Compound | inhibition (active/inactive call) [1] | IC50 [2] [µM] | inhibition [3] | inhibition [4] | inhibition [5] | Activity [6] | inhibition [7] | Activity [8] |
| --- | --- | --- | --- | --- | --- | --- | --- | --- |
| O=C(O)[C@@H]1CC(=S)CN1 | Active | 69.7 | Active | Active | inactive |  |  |  |
| O=C(O)[C@@H]1C=CCN1 | Active | 8.5 | Active | Active | inactive | Active |  |  |
| O=C(O)[C@@H]1C[C@@H](F)CN1 | inactive |  |  |  |  |  |  |  |
| O=C(O)[C@@H]1C[C@@H](O)CN1 | inactive |  |  |  |  |  |  |  |
| O=c1cc(-c2ccccc2)oc2cc(O)c(O)c(O)c12 |  |  | Active |  |  |  | Active | Active |
